The results in this text go back to US5872122A, “Pyrimidinylamidino β-amino acid derivatives useful as inhibitors of platelet aggregation” (Monsanto Company, priority 1997, dated 1999).

As a reminder, the IC50 is the concentration at which inhibition is half-maximal.

The test relates to platelet aggregation. Kind of test: In-Vitro Platelet Aggregation in PRP (ADP-induced). In kind it is cell-based. Conditions: Canis lupus familiaris; dog platelet-rich plasma; ADP 50 μM final; 1 min preincubation at 37° C.; read-out: IC50 (dosage at which 50% of platelet aggregation is inhibited). How it is done: Healthy male or female dogs were fasted for 8 hours prior to drawing blood; then 30 mL whole blood was collected using a butterfly needle and 30 mL plastic syringe with 3 mL of 0.129M buffered sodium citrate (3.8%). The syringe was rotated carefully as blood was drawn to mix the citrate. Platelet-rich plasma (PRP) was prepared by centrifugation at 975×g for 3.17 minutes at room temperature allowing the centrifuge to coast to a stop without braking. The PRP was removed from the blood with a plastic pipette and placed in a plastic-capped 50 mL Corning conical sterile centrifuge tube which was held at room temperature. Platelet-poor plasma (PPP) was prepared by centrifuging the remaining blood at 2000×g for 15 minutes at room temperature allowing the centrifuge to coast to a stop without braking. The PRP was adjusted with PPP to a count of 2-3×10^8 platelets/mL. The PRP preparation (400 μL) and 50 μL of the compound solution to be tested or saline were preincubated for 1 minute at 37° C. in a BioData aggregometer (BioData, Horsham, Pa.). Adenosine-5'-diphosphate (ADP, 50 μL, 50 μM final concentration) was added to the cuvettes and the aggregation was monitored for 1 minute. All compounds are tested in duplicate. Results are calculated as follows: Percent of control=[(maximal OD minus initial OD of compound) divided by (maximal OD minus initial OD of control saline)]×100. The percent inhibition equals 100-(percent of control).
The compounds tested and their median inhibitory concentrations (IC50) are recorded in Table 1. The IC50 (dosage at which 50% of platelet aggregation is inhibited) were calculated by linear regression of the dose response curve.
For `N=C(N)c1cnc(CCCCC(=O)N[C@@H](CC(=O)O)C(=O)N[C@@H](Cc2ccccc2)C(N)=O)nc1` (relative stereo) [Ex. 1, [S,(R*,R*)]-3-[[5-[5-(aminoiminomethyl)-2-pyrimidinyl]-1-oxopentyl]amino]-4-[[2-amino-2-oxo-1-(phenylmethyl)ethyl]amino]-4-oxobutanoic acid], the IC50 turned out to be 590 nM.
As for `N=C(N)c1cnc(CCCCC(=O)N[C@@H](CC(=O)O)C(=O)N[C@@H](Cc2ccccc2)C(=O)O)nc1` [Ex. 2], the IC50 amounted to 110 nM.
For `N=C(N)c1cnc(CCCCC(=O)NC(CC(=O)O)c2ccccc2)nc1` (stereo not drawn) [Ex. 3, β-[[5-[5-(aminoiminomethyl)-2-pyrimidinyl]-1-oxopentyl]amino]-phenylpropanoic acid], the IC50 amounted to 2200 nM.
Regarding `N=C(N)c1cnc(CCCCC(=O)NCCC(=O)O)nc1` [Ex. 4, N-[5-[5-(aminoiminomethyl)-2-pyrimidinyl]-1-oxopentyl]-β-alanine], the IC50 came out at 50000 nM.
For `N=C(N)c1cnc(CCCCC(=O)NC(CC(=O)O)c2cccnc2)nc1` (stereo not drawn) [Ex. 6, β-[[5-[5-(aminoiminomethyl)-2-pyrimidinyl]-1-oxopentyl]amino]-3-pyridinepropanoic acid], the IC50 was 530 nM.
